The source of these data is article PMC6774960, “Design, synthesis and biological evaluation of a series of new resveratrol analogues as potential anti-cancer agents” (Royal Society Open Science, 2019).

For one assay, the system named is HeLa cells. Kind of assay: MTT anti-proliferation assay, HeLa. In kind it is cell-based, human. The note with it: 24 h, average of three determinations. The method, then: The 22 synthesized resveratrol compounds were evaluated for anti-proliferative activities against three human cancer cell lines, including HepG2, A549 and HeLa cells, using 3-[4,5-dimethylthiazol-2-yl]-2,5 diphenyl tetrazolium bromide (MTT) assays. Paclitaxel, a well-known tubulin inhibitor, was used as a positive control.
The anti-proliferative and cytotoxicity activity was determined using MTT assay. Human cervical carcinoma HeLa cells, human hepatocellular carcinoma HepG2 cells, human lung carcinoma A549 cells were representative in the anti-proliferation assay, which were obtained from the Shanghai Institute of Cell Biology (Shanghai, China). Normal African green monkey kidney Vero cells were a gift from Dr Xiumiao He at Guangxi University for Nationalities. Normal human hepatocytes LO2 cells were a gift from Dr Xing Lin at Guangxi Medical University. The HepG2, Hela, LO2 and Vero cells were cultured in Dulbecco's modified Eagle's medium (DMEM, Gibco) and the A549 cells were cultured in RPMI1640 (Gibco), both media were supplemented with 10% fetal calf serum and antibiotics (100 IU ml^−1 penicillin, 100 IU ml^−1 streptomycin; Amresco).
After 24 h, cell morphology was observed using a light microscope, and then 20 µl of MTT solution (5 mg ml^−1) was added to the well and incubated for 4 h, then cell survival was determined by measuring the optical density (OD) absorbance at a wavelength of 570 nm using an ELISA microplate reader. […] Cisplatin and paclitaxel were used as positive control drugs.

The subject of the next assay is HepG2 cells. Kind of assay: Apoptosis analysis, Annexin V-FITC/PI flow cytometry. In kind it is cell-based, human. The note with it: 24 h. How it is done: To investigate the effect of compound r on the apoptosis of HepG2 cells, cells were treated with different concentrations of compound r (0, 5, 15 and 45 µM) for 24 h and apoptosis was detected by flow cytometry analysis.
Figure 4. Effect of compound r on the apoptosis in HepG2 cells. Analysis of compound r induced apoptosis in HepG2 cells. The HepG2 cells were treated with 0, 5, 15 or 45 µM by flow cytometry. Cells were stained using propidium iodide (IP) and fluorescein isothiocyanate (FITC). The data manifested the percentage of early apoptotic cells (lower right) or late apoptosis and cell death (upper right) in each quadrant. TEXT PRINTED IN THE PICTURE: control: 7.22% (20 μM); 51.10% (20 μM); 18.67% (20 μM); 23.01% (20 μM) | compound r: 10.95% (low (5 μM)); 22.17% (low (5 μM)); 45.61% (low (5 μM)); 21.27% (low (5 μM)); 10.26% (middle (15 μM)); 18.51% (middle (15 μM)); 33.78% (middle (15 μM)); 37.45% (middle (15 μM)); 7.78% (high (45 μM)); 32.94% (high (45 μM)); 28.71% (high (45 μM)); 30.57% (high (45 μM)) DOUBTS OF THE COPYIST ABOUT THIS PICTURE: The quadrant percentages have no printed measure. For each plot they are listed in the order upper left, upper right, lower left, lower right (axes PI vs annexin V FITC). / The blank (0 μM) plot prints 0.00%, 0.01%, 99.91% (faint, partly hidden by dots, uncertain) and 0.08%. It is left out because no substance is present. / control (20 μM): 18.67% and 23.01% are partly overlaid by dots, so the digits are not fully certain. / compound r, low (5 μM): 21.27% is partly overlaid by dots; the first digit could be 2 or 3. 45.61% is in small print. / compound r, middle (15 μM): 33.78% and 37.45% are in small print, so 3/8 are not fully certain. / compound r, high (45 μM): 30.57% is partly overlaid by dots, and 28.71% is in small print. / The label 'compound r' is printed only on the axis of the bar chart. The scatter plots themselves are labelled only low, middle and high.
HepG2 cells seeded in 6-well plates were treated with compound r (0, 5, 15, 45 µM) or cisplatin (20 µM) for 24 h. […] The stained cells were detected via a flow cytometer.
On the technique in general: In flow cytometry, cells or beads pass a laser one at a time.

The IC50 is the concentration needed to halve the response being measured.

In the case of `COc1ccc(C(=Cc2cc(C(F)(F)F)ccc2Cl)C(=O)O)cc1` [compound r, 3-(2-chloro-5-(trifluoromethyl)phenyl)-2-(4-methoxyphenyl) acrylic acid], the IC50 came to 4.8 ± 0.8 µM with HeLa cells and 4.79 µM with HeLa cells (Homo sapiens, HeLa). Further, the apoptotic cell population in the assay with HepG2 cells (HepG2, 5 µM) turned out to be 43.44%; in the assay on HepG2 cells (HepG2, 15 µM), 55.96%; with HepG2 cells (HepG2, 45 µM), 63.51%.
